In publication PMC8621770, “New Compounds with Bioisosteric Replacement of Classic Choline Kinase Inhibitors Show Potent Antiplasmodial Activity” (Pharmaceutics, 2021):
Where two headings read alike, the source gives them in different places.

Tests used:
[1] = test system: P. falciparum strain 3D7; assay: Antimalarial activity, P. falciparum lactate dehydrogenase growth inhibition assay; type: cell-based, Plasmodium falciparum; settings: for IC50: Plasmodium falciparum
Experimental: Parasites of the P. falciparum strain 3D7 were grown in fresh group 0 positive human erythrocytes, obtained from the Centro Regional de Transfusion Sanguínea-SAS (Granada, Spain) and suspended at 5% haematocrit in RPMI 1640 containing 2% human serum, 0.2% NaHCO3, 0.5% Albumax II, 150 μM hypoxanthine, and […] gentamicin. Flasks were incubated at 37 °C, under 5% CO2 and 95% air mixture. […] The stock culture was then diluted with complete medium and non-parasitized erythrocytes to yield a haematocrit of 2% and parasitemia of 0.25%. Stock solutions of the test drugs were prepared at an initial concentration of 200 mM in DMSO, serially diluted and dispensed into triplicate in 96-well plates to yield final concentrations ranging from 0.0039 to 2 μM. The final well volume was 200 μL with a final concentration of DMSO 0.001%. Each plate also included positive growth controls, where only medium were added, and negative growth controls with 100 nM of chloroquine. […] A multidrop dispenser was used to add 50 μL of synchronized parasite culture per well. After 72 h of growth in presence of test compounds, the plates were stored frozen at −20 °C for at least 24 h. Next, they were thawed at room temperature. Parasite growth inhibition assays and IC50 determinations were carried out following the P. falciparum lactate dehydrogenase assay where parasite viability is quantified by measuring LDH activity upon APAD+ addition, a cofactor that is specific to the Plasmodium enzyme. To evaluate LDH activity, 140 μL of freshly made reaction mix, containing 143 mM sodium L-lactate, 143 μM APAD, 178.75 μM NBT, 1 U/mL diaphorase, 0.7% Tween 20 and 100 mM Tris-HCl (pH 8.0) were dispensed into plates. After 10 min of incubation in the dark at room temperature, absorbance was measured at 630 nm with a vmax precision multiwell plate reader from Molecular Devices, by using the accompanying SOFT maxPro software for analysis.

[2] = target: T1, PfCK (Plasmodium falciparum, UniProt Q8IM71); assay: Spectrophotometric coupled enzymatic assay for PfCK activity (substrate choline); type: biochemical; settings: for remaining activity at 25 µM: read-out: PfCK Fractional Activity at 25 µM; for IC50: IC50 PfCK b (compound concentration required to inhibit PfCK enzyme by 50%), substrate choline 4 mM, ATP 2 mM
T1 construct: A truncated form of PfCK (Δ79-440) featuring an N-terminal 6× His-tag; 6xHis (N); host or cells: Escherichia coli BL21 (DE3) Star
Experimental: A truncated form of PfCK (Δ79-440) featuring an N-terminal 6× His-tag was purchased from Genescript (Piscataway, NJ, USA), cloned into a pET-28a vector and transformed into Escherichia coli BL21 (DE3) Star cells (Invitrogen, Carlsbad, CA, USA). The transformed bacteria were cultured in Luria-Bertani (LB) medium at 37 °C until OD600 = 0.6 and the expression was induced with 1 mM isopropyl β-D-1-thiogalactopyranoside (IPTG). The cell culture was grown overnight at 20 °C and 180 rpm. Cells were pelleted by centrifugation at 10,000 rpm, resuspended in 50 mM Tris/HCl pH 7.5, 500 mM NaCl, 0.2 mM phenylmethylsulphonyl fluoride (PMSF, Sigma Aldrich, St. Luis, MO, USA), DNase (Sigma Aldrich, St. Luis, MO, USA), 0.5 mM β-mercaptoethanol (Sigma Aldrich, St. Luis, MO, USA) and sonicated. Separation of the soluble from the insoluble fraction was obtained by centrifugation at 15,000 rpm and 4 °C. The target enzyme was purified by a two-step purification protocol. In the first step, the cell lysate was incubated for 45 min with Ni-NTA resin (Qiagen, Venlo, The Netherlands) in a gravity column. Then, the column was washed with 40 column volumes (CV) of 50 mM Tris/HCl pH 7.5, 300 mM NaCl, 10 mM imidazole and 1 CV of 50 mM Tris/HCl pH 7.5, 300 mM NaCl, 40 mM imidazole. Finally, the His-tagged enzyme was eluted from the column using a 50 mM Tris/HCl pH 7.5, 300 mM NaCl, 400 mM imidazole buffer. A subsequent size-exclusion chromatography step was implemented to further polish the sample using a HiPrep 26/60 Sephacryl 100 HR column (GE Healthcare, Little Chalfont, Buckinghamshire, UK) previously equilibrated with 20 mM Tris/HCl pH 7.5, 150 mM NaCl buffer. This second purification step afforded a pure protein sample. The protein production yield was estimated to be nearly 2.5 mg of recombinant enzyme per liter of bacterial culture.
A spectrophotometric 96-well plate assay for PfCK activity was established based on an assay previously described. The reaction mix was composed as follows: 100 mM Tris/HCl pH 7.5, 100 mM KCl, 10 mM MgCl2, 0.5 mM phosphoenolpyruvate, 0.25 mM NADH, 4 U of pyruvate kinase, 5 U lactate dehydrogenase, 2 mM ATP, 4 mM choline chloride and different concentrations of the selected compounds. All the necessary compounds for the assay were purchased from Sigma Aldrich (St. Luis, MO, USA) and the final assay volume was 200 μL. The enzymatic reaction was initiated by the addition of the enzyme at less than 10 nM concentration and the reaction rates were measured by monitoring the decrease in the absorbance at 340 nm for 20 min at room temperature using a Spark10M instrument (Tecan). Finally, the IC50 values for each compound were determined by plotting the enzyme fractional activity (f.a.) against the logarithm of compound concentration (log[I]). Curve-fitting was performed with a dose-response curve from Origin (OriginLab Corporation, Northampton, MA, USA), using the following equation: f.a.=1/1+10^logIC50−logI
All data points were collected in triplicate and the final dose-response curves were plotted with MATLAB (R2018a (9.4.0.813654), 2018, MathWorks, Natick, MA, USA). See curves in Figure S1 in Supplementary Materials.

[3] = Erythrocyte, P. falciparum 3D7 in human erythrocytes, 72 h, LDH readout, read-out: IC50 a (In vitro IC50 values against P. falciparum)

T1 sequence (Q8IM71 entry or part of it): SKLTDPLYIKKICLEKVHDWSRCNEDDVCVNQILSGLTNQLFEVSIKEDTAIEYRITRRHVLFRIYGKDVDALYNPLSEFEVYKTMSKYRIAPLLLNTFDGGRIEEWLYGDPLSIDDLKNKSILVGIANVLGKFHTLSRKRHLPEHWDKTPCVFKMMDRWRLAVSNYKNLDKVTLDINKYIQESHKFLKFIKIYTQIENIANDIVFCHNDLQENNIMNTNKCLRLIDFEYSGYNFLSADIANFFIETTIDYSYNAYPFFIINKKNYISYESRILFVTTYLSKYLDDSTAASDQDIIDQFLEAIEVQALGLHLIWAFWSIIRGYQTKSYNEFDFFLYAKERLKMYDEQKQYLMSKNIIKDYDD

Compound	IC50 [1, 3]	remaining activity at 25 µM [2]	melting point	IC50 ([1]; 3D7, Erythrocyte, 72 h, read-out: IC50 a (In vitro IC50 values against P. falciparum))	IC50 [2]	IC50 ([1]; 3D7, Erythrocyte, infected erythrocytes, P. falciparum, read-out: antimalarial activity (IC50), as given in the text)	fold decrease in antimalarial activity with respect to the reference compounds BR-23 / BR-25 ([1]; Fg-9, Fa-21, Fg-14 vs BR-23, Ff-1, Ff-7, Ff-3 vs BR-25)
[Br-].[Br-].c1cc2c(s1)c(N1CCCCCC1)nc[n+]2Cc1ccc(-c2ccc(C[n+]3cnc(N4CCCCCC4)c4sccc43)cn2)nc1 [Fa-26, 1,1’-([2,2’-bipyridine]-5,5’-diylbis(methylene))bis(4-(azepan-1-yl)thieno[3,2-d]pyrimidin-1-ium) bromide]	209 nM	78 ± 8.13%	310 to 312 °C	–	–	–	–
[Br-].[Br-].c1cc2c(s1)c(N1CCCCC1)nc[n+]2Cc1ccc(-c2ccc(C[n+]3cnc(N4CCCCC4)c4sccc43)cn2)nc1 [Fa-27, 1,1’-([2,2’-bipyridine]-5,5’-diylbis(methylene))bis(4-(piperidin-1-yl)thieno[3,2-d]pyrimidin-1-ium) bromide]	120 nM	82.6 ± 4.9%	307 to 309 °C	–	–	–	–
[Br-].[Br-].c1cc2c(s1)c(N1CCCCC1)nc[n+]2Cc1ccc(OCCOc2ccc(C[n+]3cnc(N4CCCCC4)c4sccc43)cc2)cc1 [Fa-28, 1,1′-(((ethane-1,2-diylbis(oxy))bis(4,1-phenylene))bis(methylene))bis(4-(piperidin-1-yl)thieno[3,2-d]pyrimidin-1-ium) bromide]	47.1 nM	84.4 ± 7.53%	198 to 200 °C	–	–	–	–
[Br-].[Br-].c1cc2c(s1)c(N1CCCCCC1)nc[n+]2Cc1ccc(CCCCc2ccc(C[n+]3cnc(N4CCCCCC4)c4sccc43)cc2)cc1 [Fa-29, (1,1’((butane1,4diylbis(4,1phenylene))bis(methylene))bis(4-(azepan-1-yl)thieno[3,2-d]pyrimidin-1-ium)) bromide]	–	46.7 ± 9.49%	268 to 270 °C	55.6 nM	4640 ± 200 nM	–	–
[Br-].[Br-].c1cc2c(s1)c(N1CCCCC1)nc[n+]2Cc1ccc(CCCCc2ccc(C[n+]3cnc(N4CCCCC4)c4sccc43)cc2)cc1 [Fa-33, 1,1’-((butane-1,4-diylbis(4,1-phenylene))bis(methylene))bis(4-(piperidin-1-yl)thieno[3,2-d]pyrimidin-1-ium) bromide]	43.9 nM	68.8 ± 6.03%	276 to 278 °C	–	–	–	–
[Br-].[Br-].c1cc2c(s1)c(N1CCCC1)cc[n+]2Cc1ccc(OCCOc2ccc(C[n+]3ccc(N4CCCC4)c4sccc43)cc2)cc1 [Ff-2, 4,4’-(((ethane-1,2-diylbis(oxy))bis(4,1-phenylene))bis(methylene))bis(7-(pyrrolidin-1-yl)thieno[3,2-b]pyridin-4-ium) bromide]	74 nM	81.8 ± 3.93%	280 to 282 °C	–	–	–	–
[Br-].[Br-].c1cc2c(N3CCCC3)nc[n+](Cc3ccc(OCCOc4ccc(C[n+]5cnc(N6CCCC6)c6ccsc65)cc4)cc3)c2s1 [Ff-4, 1,1’-(((ethane-1,2-diylbis(oxy))bis(4,1-phenylene))bis(methylene))bis(4-(pyrrolidin-1-yl)thieno[2,3-d]pyrimidin-1-ium) bromide]	11.5 nM	90.7 ± 4.57%	193 to 195 °C	–	37400 ± 3240 nM	~11 nM	–
[Br-].[Br-].c1cc2c(N3CCCCC3)nc[n+](Cc3ccc(OCCOc4ccc(C[n+]5cnc(N6CCCCC6)c6ccsc65)cc4)cc3)c2s1 [Ff-5, 1,1′-(((ethane-1,2-diylbis(oxy))bis(4,1-phenylene))bis(methylene))bis(4-(piperidin-1-yl)thieno[2,3-d]pyrimidin-1-ium) bromide]	22.4 nM	91.1 ± 4.27%	> 280 °C	–	–	–	–
[Br-].[Br-].c1cc2c(s1)c(N1CCCC1)nc[n+]2Cc1ccc(CCCCc2ccc(C[n+]3cnc(N4CCCC4)c4sccc43)cc2)cc1 [Ff-7, 1,1’-((butane-1,4-diylbis(4,1-phenylene))bis(methylene))bis(4-(pyrrolidin-1-yl)thieno[3,2-d]pyrimidin-1-ium) bromide]	21.9 nM	55 ± 4.07%	215 to 217 °C	–	13300 ± 3820 nM	–	10 fold
[Br-].[Br-].c1cc2c(s1)c(N1CCCC1)nc[n+]2Cc1ccc(OCCOc2ccc(C[n+]3cnc(N4CCCC4)c4sccc43)cc2)cc1 [Ff-8, 1,1’-(((ethane-1,2-diylbis(oxy))bis(4,1-phenylene))bis(methylene))bis(4-(pyrrolidin-1-yl)thieno[3,2-d]pyrimidin-1-ium) bromide]	35.2 nM	63.1 ± 6.74%	217 to 219 °C	–	–	–	–
[Br-].[Br-].c1cc2c(N3CCCCCC3)nc[n+](Cc3ccc(CCCCc4ccc(C[n+]5cnc(N6CCCCCC6)c6ccsc65)cc4)cc3)c2s1 [Ff-35, (1,1’((butane1,4diylbis(4,1phenylene))bis(methylene))bis(4-(azepan-1-yl)thieno[2,3-d]pyrimidin-1-ium)) bromide]	48.4 nM	57.6 ± 12.3%	117 to 119 °C	–	–	–	–
[Br-].[Br-].c1cc2c(s1)c(N1CCCC1)cc[n+]2Cc1ccc(CCc2ccc(C[n+]3ccc(N4CCCC4)c4sccc43)cc2)cc1 [Fg-11, 4,4’-((ethane-1,2-diylbis(4,1-phenylene))bis(methylene))bis(7-(pyrrolidin-1-yl)thieno[3,2-b]pyridin-4-ium) bromide]	232 nM	33 ± 1.48%	253 to 255 °C	–	16500 ± 1430 nM	–	–
[Br-].[Br-].c1cc2c(N3CCCCCC3)nc[n+](Cc3ccc(CCc4ccc(C[n+]5cnc(N6CCCCCC6)c6ccsc65)cc4)cc3)c2s1 [Fg-19, 1,1’-((ethane-1,2-diylbis(4,1-phenylene))bis(methylene))bis(4-(azepan-1-yl)thieno[2,3-d]pyrimidin-1-ium) bromide]	71.5 nM	–	298 to 300 °C	–	–	–	–
